Measurements: a melting point compilation (Tetko et al.; mined from patent text by program, amines drawn as free bases though some values may be those of a salt)

| melting point [°C] | SMILES |
| --- | --- |
| 196 to 200 | Nc1ccc2cccc(Oc3cc(-c4ccc(C(F)(F)F)cc4)ccn3)c2n1 |
| 94 to 96 | CN(Cc1cc2c3c(c1)c(=O)c(C(=O)NCc1ccc(F)cc1)cn3CC(=O)N2C)C[C@@H](O)c1cc2ccccc2o1 |
| 197 to 200 | O=C(Nc1ccccc1)N1C(=O)[C@H](O)[C@@H]1c1ccccc1 |
| 82 to 84 | CCOC(=O)c1cc(-c2ccc(Cl)cc2)n(O)c1C(=O)OCC |
| 64.5 to 71 | OC1CCCC(c2ccccc2)O1 (stereo not drawn) |
| 187 to 193 | N#Cc1cccc(CN2C(=O)C3(COc4cc5c(cc43)CCO5)c3ccccc32)c1 (stereo not drawn) |
| 184 to 186 | COc1ccc(-c2cnc(C3(c4ccc(OC)c(OC)c4)NCCc4c3[nH]c3ccccc43)nc2)cc1OC (stereo not drawn) |
| 235 to 237 | O=C(NCc1ccccn1)c1cc(N2CCN(Cc3ccc(F)cc3)C2=O)n[nH]1 |
| 56 to 57 | O=c1n(CCCCCl)nc2n1-c1ccccc1OC2 |
| 60 | CC1(C)C2CC3=C(CCC(=O)O3)C1C2 (stereo not drawn) |
| 124 | CCOC(=O)c1ccc(/C=C(\C)c2ccc(O)c(C3(C)CCCCC3)c2)cc1 |
| 328 to 335 | CC(C)C(=O)Oc1n[nH]c(=O)c2nc3cc(Cl)ccc3c(O)c12 |
| 171 to 172 | CC1(C)Nc2ncc(-c3ccc(C(=O)N4CCC[C@H]4CN4CCCC4)cc3)cc2N(Cc2cc(F)ccc2F)C1=O |
| 172 | Cc1ccc(-c2cc(OCC(=O)N3CCOCC3)c3c(C(F)(F)F)cccc3n2)cc1 |
| 55 to 56 | COc1ccc(C(=O)OC2CCN(Cc3ccccc3)CC2)cc1 |
| 161 to 163 | COc1cc(-c2c(C)c3cc(O)ccc3n2Cc2ccc(OCCN3CCCCC3)cc2)ccc1O |
| 258 to 263 | Cc1cc(C#N)c(=O)[nH]c1C |
| 85 to 87 | C=CCOCC(O)CN1CCN(c2nc(-c3ccccc3)nc3ccccc23)CC1 (stereo not drawn) |
| 121 | CCOC(=O)c1[nH]c(=O)sc1Br |
| 78 to 80 | CCCCc1nc(CO)c(Cl)n1Cc1ccccc1 |
| 129 to 130 | CCN(C)C(C)C(=O)Nc1cccc2c1C(=O)c1c(NC(=O)C(C)N(C)CC)cccc1C2=O (stereo not drawn) |
| 83 to 84 | CCOc1cc(OCC)c2ccccc2c1O |
| 112 to 114 | Fc1cccc(Cl)c1-c1nn(-c2ccccc2Cl)c(=S)o1 |
| 51 to 53 | C[Si](C)(Cn1ccnc1)c1ccc(-c2ccccc2)cc1 |
| 124 to 125 | CC(=O)Cc1ccc2c(c1)Cc1cccnc1O2 |
| 138 | CC(C)(C)C(=O)Nc1ncccc1CNC1CCN(Cc2ccccc2)CC1 |
| 145 | O=C(NCCc1ccccc1)c1ccccc1-c1ccccc1CNS(=O)(=O)c1cccc([N+](=O)[O-])c1 |

| melting point [°C] | SMILES |
| --- | --- |
| 228 to 231 | c1ccc(-c2ncc(-c3cnc(-c4ccccc4)o3)cn2)cc1 |
| 89 | COC(=O)c1c(C)nc2ccc(Br)cc2c1NCc1ccccc1 |
| 72.8 to 73.2 | Cc1cc(OCC(F)(F)F)c([N+](=O)[O-])c(OCC(F)(F)F)n1 |
| 59 to 61 | CCCCCCOc1ccc(CCCCCCCCC(=O)N(C)O)cc1 |
| 64 to 66 | CCCCN(C1=C(O)C[C@@](CCc2cccc(O)c2)(C2CCCC2)OC1=O)c1ccccc1 |
| 152 | Cc1cccc(NC(=O)NCC(=O)N(CC(=O)OC(C)(C)C)c2ccc([N+](=O)[O-])cc2)c1 |
| 74 to 76 | CC(C)(C)OC(=O)N[C@@H](Cc1ccnc(C#N)c1)C(=O)OCc1ccccc1 |
| 154 to 155 | O=C(O)c1ccccc1COc1cccc(Cl)c1 |
| 101 to 102 | COC(=O)[C@@H](NC(=O)OC(C)(C)C)[C@H](O)c1ccccc1 |
| 206 to 207 | CC(=O)NC[C@H]1CN(c2ccc(N3CCC(Cc4nnc(N)s4)CC3)c(F)c2)C(=O)O1 |
| 81 to 83 | C=Cc1c(C(=O)OC)nc(-c2ccc(Cl)cc2)c(F)c1N |
| 145 to 149 | OCC1=C(c2cccc3sccc23)N2CCN=C2S1 |
| 125 to 127 | NC(=O)C1CCc2ccccc2O1 (stereo not drawn) |
| 127 | CC(C#N)N1CCC(C(=O)c2ccc(F)cc2)CC1 (stereo not drawn) |
| 107 to 108 | CCCCCS(=O)(=O)NC(=O)CCc1cc(OC(C)C)nn1Cc1ccc(F)cc1F |
| 257 to 258 | Cc1c(I)ccc2c1C(=O)NS2(=O)=O |
| 107 to 108 | COc1nc(Cl)nc(Nc2ccc(OC(=O)C(C)(C)Br)cc2)n1 |
| 50 to 52 | c1cc(C2=NCCS2)nc(C2OCCO2)c1 |
| 146 to 147 | CN1CC[C@@H](c2c(O)cc(O)c3c(=O)cc(-c4cccc(Cl)c4)oc23)[C@@H]1CO |
| 213 to 215 | CC(=O)CNc1ccc(/C=C/C(=O)O)cc1 |
| 236 to 237 | Cn1ncc(/C=C/C(=O)O)c1-c1cccnc1 |
| 208 to 210 | C#CCN(Cc1cc2c(=O)n(C)c(CN3CCC(O)CC3)nc2cc1Cl)c1ccc(C(=O)OC(C)(C)C)cc1 |
| 178 to 179 | C=CCn1c(=O)ccc2cc(F)c(-n3c(=O)cc(C(F)(F)F)n(C)c3=O)cc21 |
| 169 to 171 | CC(=O)N1CCC(=O)C(C(c2ccc(Cl)cc2)c2ccc(Cl)cc2)C1 (stereo not drawn) |
| 119 | CCSc1c(Nc2c(C)c(=O)c2=O)ccc2[nH]cc(CCCO)c12 |
| 199 | O=C(NC1CCC(CCN2CCC(c3cccc4c3CCO4)CC2)CC1)C1CC1(F)F (stereo not drawn) |

More lines, now with the values behind:

| SMILES | melting point [°C] |
| --- | --- |
| O=C(Oc1ccc2c(c1)C13CCCCC1N(C2)N(C(=O)C1CC1)CC3)C1CC1 (single isomer, unassigned; (+)) | 144 |
| COC(=O)c1cc2cc(OC)c(OC)cc2c(-c2cccnc2)c1C(=O)OC | 95 to 96 |
| O=C1CC(c2cccc3oc4c(c23)CCCC4)CC(=O)O1 | 139 to 140 |
| Cc1cccc2oc3cc(Cl)ccc3c(=O)c12 | 111 to 113 |
| CCC(=O)c1ccsc1N | 140 to 142 |
| CCOCn1cnc2c(N)nc3ccccc3c21 | 255 to 261 |
| Nc1ccccc1C(=O)C=CC(=O)O | 103 to 107 |
| CC(C)CCOc1ccc(Cl)c2c(=O)c3ccccc3sc12 | 96 to 97 |
| CCc1ccccc1Sc1c(O)cc(-c2ccccc2)oc1=O | 190 to 192 |
| CC(=O)CC(=O)NC1CCCCCC1 | 52 |
| N#Cc1ccc(C(=O)[C@H]2C[C@H]2C(=O)O)cc1 (relative stereo) | 180 to 182 |
| CCCCCCCC(=O)NCCCCCCO | 77 to 78 |
| O=C1CC(C(=O)O)Oc2ccccc21 (stereo not drawn) | 170 to 171 |
| Cc1onc(-c2ccc(Cl)c(Cl)c2)c1-c1ccc(S(N)(=O)=O)cc1 | 66 to 71 |
| O=[N+]([O-])c1cc(-c2nnn[nH]2)ccc1OCc1ccccc1 | 178 to 180 |
| O=C(O)CC1(O)CCC(N2CCC(Nc3ccncc3)CC2)CC1 (stereo not drawn) | 261 |
| O=C(NN1CCCCC1)c1nc(-c2ccc(Cl)cc2Cl)c(-c2ccc(Br)cc2)s1 | 171 to 173 |
| NS(=O)(=O)c1ccc(-n2nc(C(F)(F)F)cc2-c2ccc(-c3cscn3)c(O)c2)cc1F | 224 to 226 |
| CC(C)C(S)C(=O)NC1(C(=O)NC(Cc2ccc(-c3ccccc3)nc2)C(=O)O)CCCC1 (stereo not drawn) | 208 to 211 |
| COc1ccc2[nH]c(C(=O)Nc3ccc(CCCN(C)Cc4ccc(OC)c(OC)c4)cc3)cc2c1 | 80 |
| O=C(O)Cc1cccc(Cc2nc3c(F)c(F)cc(F)c3s2)c1Cl | 156 to 158 |
| Cc1cc([N+](=O)[O-])c(Cl)c([N+](=O)[O-])c1S(N)(=O)=O | 205 to 215 |
| COC(=O)COc1c(OC)cc(C(=O)C#Cc2cc(-c3cccs3)c(OC)cc2OC)cc1OC | 153 to 155 |
| COc1cc(C=C2OC(C)=CC2=O)ccc1O | 168 to 170 |
| Cc1nc(N)nc(N)c1I | 154 to 156 |

| SMILES | melting point [°C] |
| --- | --- |
| CCCCn1cnc2c(SCc3ccc4nsc(Br)c4c3)ncnc21 | 118 to 119 |
| O=C(Nc1ccc(S(=O)(=O)N2CCOCC2)cc1)c1cc(N2CCOCC2)ccc1[N+](=O)[O-] | 252 |
| COc1cccc2c1CC1CC(CN3CCC(c4c[nH]c5ccccc45)CC3)CN(C)C1C2 (stereo not drawn) | 220 to 223 |
| COC(=O)C1=C(C(=O)OC)c2c([nH]c3ccccc23)CC1 | 249 |
| CCOC(=O)N[C@@H](C(=O)N1CCC[C@H]1C(=O)O)c1ccccc1 | 163 to 166 |
| CC1CC(=O)NN=C1c1cc2cc(O)c(O)cc2s1 (stereo not drawn) | > 270 |
| Cc1cccc(C(=O)NO)c1N(C)S(=O)(=O)c1ccc(OCCCCNC(=O)c2cc3ccccc3o2)cc1 | 131 to 134 |
| CCN(CC)C(=S)n1cc(F)c(/N=C/N(C)C)nc1=O | 118 to 123 |
| CP(C)(=O)CCCOC(=O)c1cccnc1Nc1cccc(C(F)(F)F)c1 | 165 |
| Cc1c(Cl)cc(C(C)(C)C)c(O)c1-c1nc2cc(OC(F)(F)F)ccc2[nH]1 | 243 to 244 |
| O=C(CCCC12CCC(=O)N1C(=O)CC2)OCc1ccccc1 | 102 to 105 |
| CC(=O)OCCOc1cc(-n2c(=O)cc(C(F)(F)F)n(C)c2=O)c(F)cc1Cl | 88 to 90 |
| COc1cccc(NC(=O)NC2N=C(c3ccccc3)c3ccccc3N(CC(=O)N3CCCC3)C2=O)c1 (stereo not drawn) | 193 to 194 |
| NC(=NO)c1ccc(I)cc1 | 155 to 161 |
| Cc1cc(OCc2ccc(-c3ccc(OC(F)(F)F)cc3)nc2)ccc1OC(C)(C)C(=O)O | 146 to 148 |
| O=C(O)c1csc2c(=O)cc(-c3ccccc3)oc12 | 282 to 283 |
| NC(=O)CC12CC3CC(CC(C3)C1)C2 | 174 |
| Oc1cnc(C(F)(F)F)nc1 | 179 to 181 |
| CN1CCN(S(=O)(=O)c2ccc(Nc3ncnc4cc(Cl)ccc34)cc2)CC1 | 237 to 239 |
| CC(C)N(Sc1nc2ccccc2s1)C(C)(C)C | 68 to 70 |
| O=C(CCCBr)Nc1ccc(O)cc1 | 142 to 144 |
| CN1c2ccc(S(=O)(=O)N3CCOCC3)cc2S(=O)(=O)NC1C1CCCCC1 (stereo not drawn) | 207 to 210 |
| Cc1c(N)c2c(c3c1C(c1ccc(C(C)C)cc1)CO3)CCC2 (stereo not drawn) | 112 to 113 |
| CCOC(=O)c1cnn(-c2ccc(OC)cc2)c1N | 209 to 211 |
| COc1cc2ncnc(Nc3ccc(F)c(Cl)c3)c2cc1OCCC1OCCO1 | 167 to 168 |
